Measurements from patent US8288363B2, “Medicaments for anti-herpes virus treatments” (ASE & BIO, priority 2006, dated 2012).

What was measured:
[1] = system: HSV-1, HSV-1R, HSV-2 and HSV-2R; experiment: Action on the viral penetration; format: cell-based, herpes simplex virus
Protocol: To determine whether PS3 has an effect on the viral penetration, the procedure was as follows.
Vero cells were seeded at a cell density of 3.5·10^4 cells/well of a microtitre plate in 100 μl of MEM medium containing 8% FCS.
After 24 hours, the confluent cells were brought into contact with 50 μl of a viral suspension for 1 hour at 4° C.
The cell carpet was then incubated with various concentrations of PS3 (0.125-1,250 μg/ml) or reference product, in this case acyclovir ([…]), at 37° C. in order to facilitate penetration of the viruses.
After incubation times of 15, 30 and 60 minutes, the corresponding cells were washed with 100 μl of PBS and then treated for 1 minute with 0.5 mg/ml of proteinase K (Sigma) in solution in PBS in order to remove all the extracellular viruses which had not been adsorbed.
This treatment was stopped by addition of 1 mM of phenylmethylsulphonyl fluoride (Sigma) in solution in PBS containing 3% FCS.
The cells were then washed with 100 μl of PBS per well and cultured again at 37° C. in 200 μl of MEM medium supplemented with 8% FCS.
Controls of the growth of the cells and of the viruses were run simultaneously. After incubation for 48 hours, the effect of PS3 and of acyclovir on the penetration of the virus was measured using the neutral red method.

[2] = system: HSV-2; experiment: Anti-herpes activity, viability of infected vero cells (neutral red); format: cell-based, herpes simplex virus 2; settings: for EC50: MOI 0.01 ID50/cell
Protocol: (§1) This method is based on the principle that living cells absorb neutral red, which is a vital stain. The optical density of the medium was measured at the maximum absorption wavelength of neutral red, that is to say 540 nm, using a spectrophotometer (SpectraCount™, microplate photometer, Packard). The optical density at 540 nm is proportional to the number of living cells in an infected culture (McLaren et al., Antiviral Research, 1983; 3: 223-234 and Langlois et al., Standardization, 1986, 14: 201-211).
(§2) The effective concentration (EC 50%), that is to say the concentration of the sulphated polysaccharide which enables infection of 50% of the cells of a culture to be inhibited, was measured for each viral strain.
(§3) The determination of the EC50 was carried out in 96-well microtitre plates in accordance with the following protocol. Vero cells are seeded at a cell density of 3.5·10^4 cells/well in 100 μl of MEM medium containing 8% FCS. For each viral suspension defined by its MOI: • the negative control column was filled with 100 μl of MEM medium with 8% FCS, • the virus control column was filled with 50 μl of viral suspension having the required MOI and with 50 μl of MEM medium with 8% FCS, • the PS3 control column was filled with 50 μl of PS3 having the desired concentration range or with 50 μl of acyclovir (Zovirax 0.05-5 μg/ml • finally, all the other columns were filled successively with 50 μl of PS3 having the required concentration range or with 50 μl of acyclovir (Zovirax 0.05-5 μg/ml) and with 50 μl of the viral suspension having the desired MOI.
(§4) The EC50 corresponding to the concentration which enables the cytopathic effect of the virus to be reduced by 50% was calculated in accordance with the following formula: […]
(§5) The anti-herpes activity of PS3 was evaluated and compared on each viral suspension of HSV-1, HSV-1R, HSV-2 and HSV-2R defined by an MOI of 0.01 ID50/cell for a cell concentration of 350,000 cells/ml, after incubation times of 48 and 72 hours.
(§6) This series of experiments was carried out applying the protocol enabling the EC50 to be determined, as described in Example 3.
(§7) The therapeutic indices (TI) of PS3, as well as three other reference products, that is to say acyclovir, dextran sulphate and phycarine, were determined in parallel for each viral strain.
(§8) The therapeutic index (TI) represents the ratio between the maximum non-toxic dose (or a dose inducing a quantified toxicity) and the dose inducing a favourable pharmacological effect.

[3] = system: acyclovir-resistant strain HSV-2R; experiment: as above; format: cell-based, herpes simplex virus 2; settings: for Anti-herpes activity (conclusion in words) / EC50: HSV-2R; for Anti-herpes activity (conclusion in words): 48 and 72 hours; for EC50: MOI 0.01 ID50/cell
Protocol: as §1, §2, §3, §4, §5, §6, §7, §8

[4] = system: HSV-1, HSV-1R, HSV-2 and HSV-2R; experiment: Action as a function of the moment of use (time of addition); format: cell-based, herpes simplex virus; settings: for Inhibitory effect as a function of the moment of use: viral strains HSV-1R and HSV-2R, PS3 even when used 3 hours after infection, 72 hours
Protocol: To determine at what moment it is appropriate to use PS3, the procedure was as follows.
Vero cells were seeded at a cell density of 3.5·10^4 cells/well of a 96-well microtitre plate in 100 μl of MEM medium containing 8% FCS and they were then infected by being brought into contact with the various viral strains identified above for 1 hour at 4° C.
The infected cells were then washed with a saline buffer in order to remove the viral particles which had not be adsorbed.
The infected cells were then treated with PS3 or with the comparison product: • either at the moment of infection, • or 1, 2, 3 and 5 hours after infection.
In each case the microtitre plates were kept at 37° C. for 72 hours. The inhibitory effect of PS3 or of the comparison product, in this case acyclovir, was then determined for each viral strain.

[5] = non-resistant strains HSV-1 and HSV-2
[6] = strains HSV-1, HSV-2, HSV-1R, HSV-2R

Compound | Effect on penetration [1, 5] | Therapeutic index HSV-2 ([2]; incubation time 48 hours) | Therapeutic index HSV-2 ([2]; incubation time 72 hours) | Anti-herpes activity (conclusion in words) [3] | Therapeutic index HSV-2R ([3]; incubation time 48 hours) | Therapeutic index HSV-2R ([3]; incubation time 72 hours) | Effect in relation to the moment of addition [4, 5] | Inhibitory effect as a function of the moment of use [4] | Effect on penetration [1, 6] | Anti-herpes activity (conclusion in words) ([2]; HSV-2, 48 and 72 hours) | EC50 ([2]; HSV-2, after 48 hours of treatment) | EC50 ([2]; HSV-2, after 72 hours of treatment) | EC50 ([3]; after 48 hours of treatment) | EC50 ([3]; after 72 hours of treatment) | Effect in relation to the moment of addition [4, 6]
Nc1nc2c(ncn2COCCO)c(=O)[nH]1 [Acyclovir, acyclovir, reference compound] | no | >579 | >613 | not effective | 0 | 0 | effective up | no effect | – | – | – | – | – | – | –
sulphated laminarin [PS3] | – | >4,808 | >1,344 | more effective than acyclovir | >3,788 | >1,712 | – | particularly effective | no antiviral activity on penetration and no | more effective than acyclovir | less than 2 μg/ml | less than 5 μg/ml | less than 2 μg/ml | less than 5 μg/ml | not very effective
